Source: ChEMBL document CHEMBL3769336, “Discovery of a Chemical Tool Inhibitor Targeting the Bromodomains of TRIM24 and BRPF” (J Med Chem, 2016)
Calls of active or inactive are those of the source. The rule behind the calls is not given here.

Assays:
JJN-3 = experiment: Cytotoxicity against human JJN-3 cells at 5x10'-5 M to 8x10'-8 M after 72 hrs by CellTiter-Glo assay; type: functional, cell-based
[1] = target: T1, Bromodomain and PHD finger-containing protein 3 (Homo sapiens, UniProt Q9ULD4); experiment: Inhibition of BRPF3 (unknown origin) by Alpha Screen assay
T1 sequence (Q9ULD4 whole entry): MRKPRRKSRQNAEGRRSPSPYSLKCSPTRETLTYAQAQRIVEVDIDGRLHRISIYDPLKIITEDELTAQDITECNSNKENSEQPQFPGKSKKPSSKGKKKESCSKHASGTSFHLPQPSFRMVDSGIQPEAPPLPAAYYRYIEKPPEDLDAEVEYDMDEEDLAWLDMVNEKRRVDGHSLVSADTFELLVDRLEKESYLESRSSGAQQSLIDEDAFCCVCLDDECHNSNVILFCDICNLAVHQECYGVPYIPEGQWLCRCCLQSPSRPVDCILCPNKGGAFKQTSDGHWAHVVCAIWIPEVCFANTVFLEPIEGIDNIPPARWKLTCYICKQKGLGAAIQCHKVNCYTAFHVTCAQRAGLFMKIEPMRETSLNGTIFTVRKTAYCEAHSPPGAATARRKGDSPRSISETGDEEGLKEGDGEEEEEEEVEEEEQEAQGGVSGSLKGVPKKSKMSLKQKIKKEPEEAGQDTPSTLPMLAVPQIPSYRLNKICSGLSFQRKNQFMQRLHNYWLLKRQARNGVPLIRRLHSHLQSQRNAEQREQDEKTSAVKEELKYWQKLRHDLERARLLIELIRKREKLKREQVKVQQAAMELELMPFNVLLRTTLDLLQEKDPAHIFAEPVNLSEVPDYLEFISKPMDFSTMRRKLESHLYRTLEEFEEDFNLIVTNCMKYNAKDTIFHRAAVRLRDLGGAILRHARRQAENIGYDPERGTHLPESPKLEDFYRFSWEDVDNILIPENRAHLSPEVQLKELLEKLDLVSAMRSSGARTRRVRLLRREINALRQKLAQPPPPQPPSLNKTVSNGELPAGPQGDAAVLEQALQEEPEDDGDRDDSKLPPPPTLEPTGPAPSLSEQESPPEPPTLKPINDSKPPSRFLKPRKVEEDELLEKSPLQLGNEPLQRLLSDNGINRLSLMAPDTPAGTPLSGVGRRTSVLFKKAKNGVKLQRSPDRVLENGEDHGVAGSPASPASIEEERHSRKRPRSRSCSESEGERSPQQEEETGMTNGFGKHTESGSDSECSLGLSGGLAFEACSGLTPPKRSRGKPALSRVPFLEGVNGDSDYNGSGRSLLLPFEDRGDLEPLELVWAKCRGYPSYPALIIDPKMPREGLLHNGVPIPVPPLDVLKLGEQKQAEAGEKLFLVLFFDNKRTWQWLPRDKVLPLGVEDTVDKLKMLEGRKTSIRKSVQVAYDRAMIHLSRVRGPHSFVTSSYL

MCF7 = experiment: Cytotoxicity against human MCF7 cells at 5x10'-5 M to 8x10'-8 M after 72 hrs by CellTiter-Glo assay; type: functional, cell-based
RCH-ACV = experiment: Cytotoxicity against human RCH-ACV cells at 5x10'-5 M to 8x10'-8 M after 72 hrs by CellTiter-Glo assay; type: functional, cell-based
[2] = target: T2, Transcription intermediary factor 1-alpha (Homo sapiens, UniProt O15164); experiment: Inhibition of N-terminal His6-SUMO-1-tagged recombinant human TRIM24 bromodomain expressed in Escherichia coli BL21(DE3)-R3-pRARE2 cells by Alpha Screen assay
T2 sequence (O15164 whole entry): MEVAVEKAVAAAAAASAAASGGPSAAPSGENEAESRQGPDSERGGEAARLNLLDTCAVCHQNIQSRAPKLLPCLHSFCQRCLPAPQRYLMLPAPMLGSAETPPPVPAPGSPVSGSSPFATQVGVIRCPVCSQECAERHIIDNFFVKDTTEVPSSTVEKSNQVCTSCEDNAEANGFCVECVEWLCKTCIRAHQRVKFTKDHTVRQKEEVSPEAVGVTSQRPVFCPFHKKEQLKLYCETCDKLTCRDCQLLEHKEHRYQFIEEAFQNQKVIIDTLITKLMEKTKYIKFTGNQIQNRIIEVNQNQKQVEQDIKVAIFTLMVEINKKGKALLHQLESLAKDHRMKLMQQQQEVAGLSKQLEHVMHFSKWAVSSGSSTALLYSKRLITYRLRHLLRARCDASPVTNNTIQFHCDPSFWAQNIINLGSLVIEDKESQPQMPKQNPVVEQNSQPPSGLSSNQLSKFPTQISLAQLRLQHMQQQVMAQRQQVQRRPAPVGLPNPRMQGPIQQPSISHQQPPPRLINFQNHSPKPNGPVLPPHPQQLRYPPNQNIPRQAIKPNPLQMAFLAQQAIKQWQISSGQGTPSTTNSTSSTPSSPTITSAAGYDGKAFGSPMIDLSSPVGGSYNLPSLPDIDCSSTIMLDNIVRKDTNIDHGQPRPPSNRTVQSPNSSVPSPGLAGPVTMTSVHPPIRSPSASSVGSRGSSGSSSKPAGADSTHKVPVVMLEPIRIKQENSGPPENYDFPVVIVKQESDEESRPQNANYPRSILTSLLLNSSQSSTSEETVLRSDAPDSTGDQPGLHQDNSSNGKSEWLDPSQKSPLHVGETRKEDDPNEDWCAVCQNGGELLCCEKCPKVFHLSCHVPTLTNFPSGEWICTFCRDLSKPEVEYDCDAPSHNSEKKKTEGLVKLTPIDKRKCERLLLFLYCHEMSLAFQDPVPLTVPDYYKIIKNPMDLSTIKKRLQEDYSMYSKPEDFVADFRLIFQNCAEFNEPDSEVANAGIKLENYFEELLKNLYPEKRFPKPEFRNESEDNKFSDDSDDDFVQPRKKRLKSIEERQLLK

[3] = Cytotoxicity against human MM1S cells after 72 hrs by CellTiter-Glo assay; type: functional; settings: MM1.S

- IC50 [1]: 7 µM
- IC50 [2]: 0.43 µM
SMILES: COc1ccc(Oc2cc3c(cc2NS(=O)(=O)c2ccc(OC)c(OC)c2)n(C)c(=O)n3C)cc1
- Activity (JJN-3): inactive
- Activity (MCF7): inactive
- Activity (RCH-ACV): inactive
- GI50 [3]: > 10 µM
